# Target: Cyclin-dependent kinase 2/G1/S-specific cyclin-E1 (Homo sapiens, UniProt P24941)
# Assay: CDK Assay
# Settings: pH 7; 22 °C
# Procedure: The kinase activity was assayed using an in vitro scintillation proximity assay (SPA) for measuring incorporation of [gamma-33P] ATP into GST-Rb.
row,SMILES,IC50
1,"COCCNS(=O)(=O)c1ccc(Nc2nccc(-c3cnc4ccc(OC)nn34)n2)cc1 [N-(2-methoxyethyl)-4-[(4-{6-methoxyimidazo[1,2-a]pyridazin-3-yl}pyrimidin-2-yl)amino]benzene-1-sulfonamide]",600 nM
2,"COCCN(C)S(=O)(=O)c1ccc(Nc2nccc(-c3cnc4cccnn34)n2)cc1 [4-[(4-{imidazo[1,2-a]pyridazin-3-yl}pyrimidin-2-yl)amino]-N-(2-methoxyethyl)-N-methylbenzene-1-sulfonamide]",600 nM
3,"CN(C)CCCNS(=O)(=O)c1ccc(Nc2nccc(-c3cnc4cccnn34)n2)cc1 [N-[3-(dimethylamino)propyl]-4-[(4-{imidazo[1,2-a]pyridazin-3-yl}pyrimidin-2-yl)amino]benzene-1-sulfonamide]",< 3 nM
4,"CN(C)CCNS(=O)(=O)c1ccc(Nc2nccc(-c3cnc4cccnn34)n2)cc1 [N-[2-(dimethylamino)ethyl]-4-[(4-{imidazo[1,2-a]pyridazin-3-yl}pyrimidin-2-yl)amino]benzene-1-sulfonamide]",8 nM
5,"c1ccc(Nc2nccc(-c3cnc4cccnn34)n2)cc1 [4-{imidazo[1,2-a]pyridazin-3-yl}-N-phenylpyrimidin-2-amine]",1000 nM
6,"COCCNS(=O)(=O)c1ccc(Nc2nccc(-c3cnc4cccnn34)n2)cc1 [4-[(4-{imidazo[1,2-a]pyridazin-3-yl}pyrimidin-2-yl)amino]-N-(2-methoxyethyl)benzene-1-sulfonamide]",< 3 nM
7,"CNS(=O)(=O)c1ccc(Nc2nccc(-c3cnc4cccnn34)n2)cc1 [4-[(4-{imidazo[1,2-a]pyridazin-3-yl}pyrimidin-2-yl)amino]-N-methylbenzene-1-sulfonamide]",< 3 nM
8,"CCSc1ccc2ncc(-c3ccnc(Nc4ccc(S(=O)(=O)NCCOC)cc4)n3)n2c1 [4-({4-[6-(ethylsulfanyl)imidazo[1,2-a]pyridin-3-yl]pyrimidin-2-yl}amino)-N-(2-methoxyethyl)benzene-1-sulfonamide]",< 3 nM
9,"COCCNS(=O)(=O)c1ccc(Nc2nccc(-c3cnc4ccc(Br)cn34)n2)cc1 [4-[(4-{6-bromoimidazo[1,2-a]pyridin-3-yl}pyrimidin-2-yl)amino]-N-(2-methoxyethyl)benzene-1-sulfonamide]",< 3 nM
10,"NS(=O)(=O)c1ccc(Nc2nccc(-c3cnc4cccnn34)n2)cc1 [4-[(4-{imidazo[1,2-a]pyridazin-3-yl}pyrimidin-2-yl)amino]benzene-1-sulfonamide]",< 3 nM
11,"COCCNS(=O)(=O)c1ccc(Nc2ncc(Sc3ccccc3)c(-c3cnc4ccccn34)n2)cc1 [4-[(4-{imidazo[1,2-a]pyridin-3-yl}-5-(phenylsulfanyl)pyrimidin-2-yl)amino]-N-(2-methoxyethyl)benzene-1-sulfonamide]",> 10000 nM
12,"COCCNS(=O)(=O)c1ccc(Nc2nccc(-c3cnc4ccc(C#N)cn34)n2)cc1 [4-[(4-{6-cyanoimidazo[1,2-a]pyridin-3-yl}pyrimidin-2-yl)amino]-N-(2-methoxyethyl)benzene-1-sulfonamide]",< 3 nM
13,"COCCNS(=O)(=O)c1ccc(Nc2nccc(-c3c(C)nc4cccnn34)n2)cc1 [N-(2-methoxyethyl)-4-[(4-{2-methylimidazo[1,2-a]pyridazin-3-yl}pyrimidin-2-yl)amino]benzene-1-sulfonamide]",3 nM
